# Laboratory results taken from PubChem BioAssay (NCI).
# Values joined by “and” are separate entries in the source; they are usually repeats but may differ in a detail not shown here. Equal entries are not always repeated.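 Tested at 5 concentrations; 48 h exposure; 96-well plates; endpoints linearly interpolated, else capped at highest concentration. GI50 is the concentration that inhibits growth by half. TGI marks complete inhibition of growth.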
# How the values were obtained:
# Experiment in all cases: growth of human tumour cells (NCI), 48 h
# SNB-75 CNS = system: SNB-75 CNS
# U251 CNS = system: U251 CNS
# RXF 393 renal = system: RXF 393 renal
# SF-268 CNS = system: SF-268 CNS
# 786-0 renal = system: 786-0 renal
# NCI-H460 lung = system: NCI-H460 lung
# IGROV1 ovarian = system: IGROV1 ovarian
# TK-10 renal = system: TK-10 renal
# NCI-H522 lung = system: NCI-H522 lung
# A498 renal = system: A498 renal
SMILES,GI50 (SNB-75 CNS) [µM],TGI (SNB-75 CNS),GI50 (U251 CNS) [µM],TGI (U251 CNS) [µM],GI50 (RXF 393 renal) [µM],TGI (RXF 393 renal) [µM],GI50 (SF-268 CNS) [µM],TGI (SF-268 CNS) [µM],GI50 (786-0 renal),TGI (786-0 renal),GI50 (NCI-H460 lung),TGI (NCI-H460 lung),GI50 (IGROV1 ovarian),TGI (IGROV1 ovarian),GI50 (TK-10 renal),TGI (TK-10 renal),GI50 (NCI-H522 lung),TGI (NCI-H522 lung),TGI (A498 renal),GI50 (A498 renal)
COc1c(B(O)O)cccc1-c1nc2c(F)cc3n[nH]c(C)c3c2c2c1CCCC2,0.0152,0.168 µM,1.12,> 50,0.044,0.924,0.666,49.3,0.661 µM,10.5 µM,1.28 µM,> 50 µM,1.12 µM,> 50 µM,0.0215 µM,49.6 µM,1.11 µM,8.81 µM,–,–
CC(C)C1=CC2=C(C(=O)C1=O)C13CCCC(C)(C)C1CC2OC3=O (stereo not drawn),–,63.8 µM,–,49.7,–,–,–,55.8,–,31.9 µM,–,71.9 µM,–,32.2 µM,–,28.6 µM,–,30.6 µM,52.2 µM,–
CN(C)c1ccc(/C=c2/c3cc(O)ccc3n3c2cc(-c2ccccc2)[n+]3C)cc1,–,1.95 µM,–,1.52,–,3.54,–,1.55,1.31 µM,–,–,–,–,1.47 µM,4.88 µM,> 100 µM,–,1.75 µM,> 100 µM,> 100 µM
NC(=O)c1csc(-c2ccc(CO)o2)n1,–,–,–,> 100,–,> 100,–,> 100,–,> 100 µM,–,> 100 µM,–,> 100 µM,–,> 100 µM,–,> 100 µM,> 100 µM,–
COc1ccc(/C=C/C(=O)/C=C(O)/C=C/c2ccc(OC)c(OC)c2)cc1OC,16.5,69 µM,2.99,> 100,–,–,4.77,> 100,3.03 µM,25.7 µM,4.6 µM,> 100 µM,3.43 µM,> 100 µM,4.03 µM,> 100 µM,2.52 µM,7.53 µM,–,–
O=C(O)c1ccc(/C=N/N=C2c3ccccc3-c3ccccc32)cc1,–,–,–,> 100,–,> 100,–,89.3,–,> 100 µM,–,> 100 µM,–,> 100 µM,–,> 100 µM,–,> 100 µM,> 100 µM,–
C[C@]12CC[C@@H]3c4ccc(OC(=O)N(CCCl)CCCl)cc4CC[C@H]3[C@@H]1CC[C@@H]2OP(=O)(O)O,29.2,> 66.7 µM,33.9,> 100,–,–,> 75.5,> 100,43.9 µM,> 100 µM,36.1 µM,> 100 µM,> 100 µM,> 100 µM,> 38.3 µM,> 100 µM,28.8 µM,> 71.5 µM,42.2 µM,16 µM
COc1ccc([C@@H]2OC(=O)C3C2C(=O)O[C@H]3c2ccc(OC)cc2)cc1 (stereo partly drawn),–,> 100 µM,–,> 100,–,> 100,–,–,–,> 100 µM,–,> 100 µM,–,> 100 µM,–,–,–,–,> 100 µM,–
CN1CCN(CCC=C2c3ccccc3Sc3ccc(S(=O)(=O)N(C)C)cc32)CC1,–,–,–,–,1.68,5.52,–,–,4.12 µM and 6.73 µM,16.2 µM and 20.8 µM,3.51 µM and 3.47 µM,14.8 µM and 14 µM,5.13 µM and 8.26 µM,23.3 µM and 25.7 µM,2.22 µM and 7.92 µM,5.05 µM and 23.8 µM,1.87 µM and 8.15 µM,3.83 µM and 28.1 µM,13.2 µM and 17 µM,2.19 µM and 3.51 µM
COC(=O)C1=CC(=O)[C@@H]2CCCC[C@H]12,–,> 100 µM,–,> 100,–,> 100,–,> 100,–,> 100 µM,–,> 100 µM,–,–,–,> 100 µM,–,> 100 µM,–,–
Cc1cc(C)c(/C=N/NS(=O)(=O)c2ccccc2)c(C)c1,–,> 100 µM,–,> 100,–,> 100,–,> 100,–,> 100 µM,–,> 100 µM,–,> 100 µM,–,> 100 µM,–,–,> 100 µM,–
COc1cc(C2CC(c3cccc(Nc4ccnc5cc(Cl)ccc45)c3)=NN2c2ccccc2)cc(OC)c1OC (stereo not drawn),6.6,> 100 µM,–,–,8.37,> 100,75.5,> 100,5.88 µM,> 100 µM,3.27 µM,> 100 µM,29.2 µM,> 100 µM,9.57 µM,> 100 µM,3.6 µM,> 100 µM,–,–
COC1C(=O)CCC2(CO2)C1(O)C1(C)OC1CC=C(C)C (stereo not drawn),–,> 100 µM,–,> 100,–,> 100,–,> 100,–,> 100 µM,–,> 100 µM,–,> 100 µM,–,> 100 µM,–,–,> 100 µM,–
COC(=O)c1c2c(c(C)[n+]([O-])c1C)C(=O)C(NCc1ccc(O)cc1)=CC2=O,1.67,3.06 µM,1.77,5.26,1.5,2.98,1.64,3.53,2.11 µM,4.87 µM,1.58 µM,3.35 µM,1.59 µM,3.78 µM,–,–,1.43 µM,3.49 µM,2.92 µM,1.31 µM
COc1cc2c(cc1-c1coc3cc(O)ccc3c1=O)OCO2,–,46.1 µM,–,45.9,–,–,–,43.6,–,29.9 µM,–,32 µM,–,53.7 µM,–,43.9 µM,–,36.2 µM,80.5 µM,–
CCCCCCCCCC[C@H](O)[C@H]1CC[C@@H]([C@@H](O)CC[C@H](O)[C@@H]2CCC(CCCCCCC[C@@H](O)CC3=C[C@H](C)OC3=O)O2)O1 (stereo partly drawn),9.29,9.56 µM and 28.1 µM,8.25,–,–,19.8,8.17,–,4.9 µM,3.64 µM and 20.7 µM,1.15 µM,17.2 µM,5.17 µM,4.99 µM and 21.1 µM,4.26 µM,20.9 µM,–,18 µM,–,–
CC#CC#C/C(=C/C=CC(=O)OC)SC,–,> 100 µM,–,> 100,–,–,–,> 100,–,> 100 µM,–,> 100 µM,–,> 100 µM,–,> 100 µM,–,> 100 µM,> 100 µM,–
CO/C(=C1/NC(=O)C(Cc2ccc(O)c(Br)c2)N(C)C(=O)C(C)NC(=O)CCC/C=C(\C)CCC(C)OC1=O)c1ccccc1 (stereo not drawn),–,–,0.0199,0.0909,0.0347,16.2,0.0267,0.0767,0.0263 µM,0.0692 µM,–,3.49 µM,0.0199 µM,0.0465 µM,–,–,0.0281 µM,0.438 µM,0.0357 µM,0.0174 µM
